Laboratory results taken from patent US20260053861A1, “CELL COMPOSITIONS AND METHODS OF USING THE SAME” (THE REGENTS OF THE UNIVERSITY OF CALIFORNIA, priority 2022, published 2026).
Counter-ions that a name gives are not always drawn. Like-named read-outs stand apart in the source and are kept apart here. Non-standard residues stand in square brackets, D forms with d. Residues, ends and D or L forms follow the SMILES beside them. *: point of attachment. Sta = CC(C)C[C@H](N)[C@@H](O)CC(=O)O; Isovaleryl = CC(C)CC(=O)*

Test system: hPSC-SCs
[1] = HTS viability of hPSC-SCs in the presence of 30 mM glucose, Prestwick library, Table S4

CC[C@H]1OC(=O)[C@H](C)[C@@H](O[C@H]2C[C@@](C)(OC)[C@@H](O)[C@H](C)O2)[C@H](C)[C@@H](O[C@@H]2O[C@H](C)C[C@H](N(C)C)[C@H]2O)[C@](C)(O)C[C@@H](C)C(=O)[C@H](C)[C@@H](O)[C@]1(C)O [Erythromycin]
z.score.t [1]: −0.09426

O=C(O)c1cn(C2CC2)c2cc(N3CCNCC3)c(F)cc2c1=O [Ciprofloxacin hydrochloride]
z.score.t [1]: 0.6386

CN1C(C(=O)Nc2ccccn2)=C(O)c2ccccc2S1(=O)=O [Piroxicam]
z.score.t [1]: −0.4161

C[C@]12C[C@H]3S[C@H]3C[C@@H]1CC[C@@H]1[C@@H]2CC[C@]2(C)[C@@H](O)CC[C@@H]12 [Epitiostanol]
z.score.t: 0.1686

CCC1NC(=O)c2cc(S(N)(=O)=O)c(Cl)cc2N1 (stereo not shown) [Quinethazone]
z.score.t [1]: −0.9264

COc1ccc2c3c1O[C@H]1C[C@@H](O)C=C[C@@]31CCN(C)C2 [Galanthamine hydrobromide]
z.score.t: 0.8023

CCCNC(=O)NS(=O)(=O)c1ccc(Cl)cc1 [Chlorpropamide]
z.score.t [1]: 0.1979

O=C1CC[C@@]2(O)[C@H]3Cc4ccc(O)c5c4[C@@]2(CCN3CC2CC2)[C@H]1O5 [Naltrexone hydrochloride dihydrate]
z.score.t [1]: 0.754

OC(CCN1CCCCC1)(c1ccccc1)C1CC2C=CC1C2 (stereo not shown) [Biperiden hydrochloride]
z.score.t [1]: 0.04918

Cc1c(Cl)cccc1Nc1ncccc1C(=O)O.NCCCC[C@H](N)C(=O)O [Clonixin Lysinate]
z.score.t: 0.9603

CCC[C@@H]1C[C@@H](C(=O)N[C@@H]([C@H]2O[C@H](SC)[C@H](O)[C@@H](O)[C@H]2O)[C@@H](C)O)N(C)C1 [Lincomycin hydrochloride]
z.score.t [1]: 0.1446

C=C(CC)C(=O)c1ccc(OCC(=O)O)c(Cl)c1Cl [Ethacrynic acid]
z.score.t [1]: 1.53

O=c1c(O)c(-c2ccc(O)cc2)oc2cc(O)cc(O)c12 [Kaempferol]
z.score.t [1]: −1.014

CN(C)[C@@H]1C(O)=C(C(N)=O)C(=O)[C@@]2(O)C(O)=C3C(=O)c4c(O)cccc4[C@@](C)(O)[C@H]3[C@H](O)[C@@H]12 [Oxytetracycline dihydrate]
z.score.t [1]: −0.09426

CN(C)C(=O)Oc1cc(OC(=O)N(C)C)cc(C(O)CNC(C)(C)C)c1 (stereo not shown) [Bambuterol hydrochloride]
z.score.t [1]: −0.5919

CC=CC(=O)N(CC)c1ccccc1C [Crotamiton]
z.score.t: −1.426

Cc1cc2c(cc1S(N)(=O)=O)S(=O)(=O)CCC2 [Meticrane]
z.score.t [1]: −0.3156

CC(=O)O[C@]1(C(C)=O)CC[C@H]2[C@@H]3C=C(Cl)C4=CC(=O)[C@@H]5C[C@@H]5[C@]4(C)[C@H]3CC[C@@]21C [Cyproterone acetate]
z.score.t [1]: −0.5219

Isoetharine mesylate salt
z.score.t: 0.5976

Cc1c(C)c2c(c(C)c1O)CC[C@@](C)(CCC[C@H](C)CCC[C@H](C)CCCC(C)C)O2 [Tocopherol (R,S)]
z.score.t [1]: −0.7233

CC(N)CCCC(C)(C)O (stereo not shown) [Heptaminol hydrochloride]
z.score.t [1]: 0.7415

OCCN(CCO)c1nc(N2CCCCC2)c2nc(N(CCO)CCO)nc(N3CCCCC3)c2n1 [Dipyridamole]
z.score.t [1]: −0.8392

CN1[C@@H]2CCC[C@H]1CC(=O)C2.Cl [Pseudopelletierine hydrochloride]
z.score.t: −0.6864

CN(C)CCOC(c1ccccc1)c1ccccc1 [Diphenhydramine hydrochloride]
z.score.t [1]: −0.5689

Cn1c(=O)c2[nH]cnc2n(C)c1=O.O [Theophylline monohydrate]
z.score.t: −1.123

Ifenprodil tartrate
z.score.t [1]: −1.132

O=C1c2c(O)ccc(O)c2C(=O)c2c(NCCNCCO)ccc(NCCNCCO)c21 [Mitoxantrone dihydrochloride]
z.score.t [1]: −0.3936

CCC(=O)O[C@H]1CC[C@H]2[C@@H]3CCC4=CC(=O)CC[C@]4(C)[C@H]3CC[C@]12C [Testosterone propionate]
z.score.t: −1.014

COc1ccc2c3c([nH]c2c1)[C@H]1C[C@H]2[C@H](C[C@@H](O)[C@H](OC)[C@H]2C(=O)O)CN1CC3.Cl [Reserpinic acid hydrochloride]
z.score.t: −0.4278

CCN1C[C@]2(C)CC[C@H](O)[C@]34C1[C@@H](C[C@H]23)[C@@]1(O)C[C@H](OC)[C@H]2C[C@@H]4[C@@H]1[C@H]2O [Karakoline]
z.score.t: 1.53

NS(=O)(=O)c1cc2c(cc1Cl)NC(CC1CCCC1)NS2(=O)=O (stereo not shown) [Cyclopenthiazide]
z.score.t [1]: 2.573

CCS(=O)(=O)CCn1c([N+](=O)[O-])cnc1C [Tinidazole]
z.score.t [1]: 1.624

CN1CCN(CC(=O)N2c3ccccc3C(=O)Nc3cccnc32)CC1 [Pirenzepine dihydrochloride]
z.score.t [1]: −0.07933

CC(C)Cc1ccc([C@H](C)C(=O)O)cc1 [S-(+)-ibuprofen]
z.score.t [1]: 1.02

CCN(CC)CCOC(=O)C(c1ccccc1)C1CCCCC1 (stereo not shown) [Drofenine hydrochloride]
z.score.t [1]: −0.1913

C[C@]12CCC(=O)C=C1CC[C@@H]1[C@@H]2C(=O)C[C@@]2(C)[C@H]1CC[C@]2(O)C(=O)CO [Cortisone]
z.score.t [1]: 0.9568

Cc1cnc(NC(=O)C2=C(O)c3ccccc3S(=O)(=O)N2C)s1 [Meloxicam]
z.score.t [1]: 1.481

C[N+](C)(C)CCCCCC[N+](C)(C)C.O.O.[Br-].[Br-] [Hexamethonium dibromide dihydrate]
z.score.t: 0.7913

C[N+]1(C)CCCC(OC(=O)C(O)(c2ccccc2)c2ccccc2)C1 (stereo not shown) [Mepenzolate bromide]
z.score.t [1]: 0.03421

C[C@H](CCC(=O)O)[C@H]1CC[C@H]2[C@@H]3[C@H](O)C[C@@H]4C[C@H](O)CC[C@]4(C)[C@H]3CC[C@]12C [Chenodiol]
z.score.t [1]: 1.481

Cn1c(-c2ccc3c(c2)OCO3)cc(=O)c2ccccc21 [Graveoline]
z.score.t [1]: 0.495

COc1cc(C(=O)NCc2ccc(OCCN(C)C)cc2)cc(OC)c1OC [Trimethobenzamide hydrochloride]
z.score.t [1]: −0.2719

Cl.O=c1[nH]oc2c1CCNC2 [THIP Hydrochloride]
z.score.t: 0.9162

N=C(N)NC(=O)c1nc(Cl)c(N)nc1N [Amiloride hydrochloride dihydrate]
z.score.t [1]: 0.07016

NC12CC3CC(CC(C3)C1)C2.NC12CC3CC(CC(C3)C1)C2.O=C(O)/C=C/C(=O)O [Adamantamine fumarate]
z.score.t [1]: −0.4942

CCCC(C(=O)OCCN(CC)CC)(c1ccccc1)c1ccccc1 [Proadifen hydrochloride]
z.score.t [1]: −1.138

Colistin sulfate
z.score.t: −0.4139

CN(C)C/C=C(/c1ccc(Br)cc1)c1cccnc1 [Zimelidine dihydrochloride monohydrate]
z.score.t [1]: 0.4064

CCOC1O[C@H]([C@@H](COCc2ccccc2)OCc2ccccc2)[C@H](OCc2ccccc2)[C@H]1O (stereo partly shown) [Tribenoside]
z.score.t [1]: −1.558

CN(CCCCCCCCCCN(C)C(=O)Oc1cccc([N+](C)(C)C)c1)C(=O)Oc1cccc([N+](C)(C)C)c1 [Demecarium bromide]
z.score.t: 1.211

CC[C@]12CCCN3CCc4c(n(c5ccccc45)[C@@](O)(C(=O)OC)C1)[C@@H]32 [Vincamine]
z.score.t [1]: 0.08508

CC(C)(C(=O)c1cccnc1)c1cccnc1 [Metyrapone]
z.score.t [1]: 1.178

c1ccc2[nH]c(-c3cscn3)nc2c1 [Tiabendazole]
z.score.t [1]: 1.638

C[C@]12CC[C@H]3[C@@H](CCC4=CC(=O)CC[C@@]43C)[C@@H]1CC[C@@H]2C(=O)CO [Deoxycorticosterone]
z.score.t: −1.303

[H]/N=C(/N)NS(=O)(=O)c1ccc(N)cc1 [Sulfaguanidine]
z.score.t [1]: −0.2425

CC1CCc2c(N3CCC(O)CC3)c(F)cc3c(=O)c(C(=O)O)cn1c23 (stereo not shown) [Nadifloxacin]
z.score.t [1]: −0.9598

C[C@]12CC[C@@H](O)C[C@H]1CC[C@@H]1[C@@H]2CC[C@]2(C)C(=O)CC[C@@H]12 [3-alpha-Hydroxy-5-beta-androstan-17-one]
z.score.t: −0.1014

CC(C)(C)NC[C@@H](O)COc1cccc2c1CCCC2=O.Cl [(+) -Levobunolol hydrochloride]
z.score.t [1]: 1.281

O=C(O)c1ccccc1OP(=O)(O)O [Fosfosal]
z.score.t [1]: 0.495

CC(=O)Nc1ccc(OCC(O)CNC(C)C)cc1 (stereo not shown) [Practolol]
z.score.t [1]: −0.3112

C/C(=C(\CCOP(=O)(O)O)SC(=O)c1ccccc1)N(C=O)Cc1cnc(C)nc1N [Benfotiamine]
z.score.t [1]: −0.1239

O=C(NCNC(=O)NC1C(=O)NC(=O)N1CO)NC1C(=O)NC(=O)N1CO (stereo not shown) [Imidurea]
z.score.t: 1.224

NC(=O)OCC(O)COc1ccc(Cl)cc1 (stereo not shown) [Chlorphensin carbamate]
z.score.t [1]: −0.09426

c1ccc2c(c1)CCCc1cc(NCCN3CCOCC3)nnc1-2 [SR-95639A]
z.score.t: −0.4139

CC(C)(C)NCC(O)c1cc(Cl)c(N)c(Cl)c1 (stereo not shown) [Clenbuterol hydrochloride]
z.score.t: 0.4048

Vitamin K2
z.score.t [1]: −0.4141

C=CCSCC1Nc2cc(Cl)c(S(N)(=O)=O)cc2S(=O)(=O)N1 (stereo not shown) [Althiazide]
z.score.t [1]: −0.1239

CN1C(C(=O)Nc2ccccn2)=C(O)c2sccc2S1(=O)=O [Tenoxicam]
z.score.t [1]: 1.659

CO[C@@H]1[C@@H](OC(N)=O)[C@@H](O)[C@H](Oc2ccc3c(O)c(NC(=O)c4ccc(O)c(CC=C(C)C)c4)c(=O)oc3c2C)OC1(C)C [Novobiocin sodium salt]
z.score.t [1]: 1.481

COc1cc2c(c(OC)c1OC)-c1ccc(O)c(=O)cc1C(N)CC2 (stereo not shown) [Trimethylcolchicinic acid]
z.score.t: −0.07901

Cl.N=C(N=C(N)N)N1CCOCC1 [Moroxidine hydrochloride]
z.score.t [1]: 1.464

Cc1cc(NS(=O)(=O)c2ccc(N)cc2)no1 [Sulfamethoxazole]
z.score.t [1]: 0.02534

Nc1ccc(S(=O)(=O)Nc2nccs2)cc1 [Sulfathiazole]
z.score.t [1]: 0.9109

CC(C)CC(=O)N[C@H](C(=O)N[C@H](C(=O)N[C@@H](CC(C)C)[C@@H](O)CC(=O)N[C@@H](C)C(=O)N[C@@H](CC(C)C)[C@@H](O)CC(=O)O)C(C)C)C(C)C [Pepstatin A] (Isovaleryl-VV[Sta]A[Sta]-OH)
z.score.t: −1.319

O=C(/C=C/C=C/c1ccc2c(c1)OCO2)N1CCCCC1 [Piperine]
z.score.t [1]: −0.1003

CCN(CC)CC#CCOC(=O)C(O)(c1ccccc1)C1CCCCC1 (stereo not shown) [Oxybutynin chloride]
z.score.t [1]: −0.7013
